Results as given in patent US4072760A, “Bronchospasmolytic phenylethanolamines” (Pharmacia AS, priority 1974, dated 1978).
Read-outs that look alike come from different tables or passages of the source.

Tests used:
[1] = tested on: β2 -stimulation, lungs guinea pig; experiment: Bronchospasmolytic effect (β2 -stimulation), Konzett-Rossler technique in anaesthetized guinea pig lungs; assay type: in vivo; settings: Cavia porcellus, doses as free base of the racemic compound
in vivo = settings: mouse
From the text: Furthermore the acute toxicity in mice after intraveneous and oral administration is given.

[2] = tested on: β2 -stimulation versus β1 -stimulation; experiment: Bronchial selectivity: heart rate increasing dose ("ED 100") divided by bronchospasmolytic dose (ED 50); assay type: in vivo; settings: heart rate ED 100 (mice, i.v.) / bronchospasmolytic ED 50 (guinea pig, i.v.)
Method: (§1) The ratio, heart rate increasing dose ("ED 100") divided by bronchospasmolytic dose (ED 50), is a measure of the degree of selectivity of the bronchospasmolytic action. This ratio was calculated for a number of the compounds of the invention and for some of the most relevant compounds of reference.

[3] = tested on: β1 -stimulation, heart rate mice; experiment: Heart rate increasing effect (β1 -stimulation) in pentobarbital anaesthetized mice; assay type: in vivo; settings: Mus musculus, iv, dose giving an increase in heart rate of 100 beats/min, as free base
Method: as §1, with “An especially valuable feature of the present invention is that typical and preferred representative of the compounds of the invention show a high bronchial selectivity (ratio of bronchospasmolytic activity to heart rate increasing effect) as compared to existing well-known broncholytics. […] The” for “The”

conscious guinea pigs [4] = experiment: Bronchospasmolytic dose in conscious guinea pigs, acetylcholine aerosol as spasmogen (Wardell); assay type: in vivo; settings: pressurized aerosol of 1% acetylcholine, more active than salbutamol
Method: (§2) The effective bronchospasmolytic doses of the two compounds were determined using a pressurized aerosol of a 1% acetylcholine solution as the spasmogen according to the method of […]. Pharmacol Exp. Therap. 1974, 189, 167-184 and the heart rate was determined according to Farmer et al. (Br. J. Pharmac. Chemotherap. 1968, 32, 193-200.

conscious guinea pigs [5] = experiment: Heart rate in conscious guinea pigs (Farmer et al.); assay type: in vivo
Method: as §2

dogs = settings: dog, in vivo
From the text: (§3) Compounds of the present invention are well tolerated, as appears from the table.

[6] = design: species or system rate; settings: in vivo
From the text: as §3

[7] = tested on: β-stimulation of the skeletal muscles; experiment: Tremor-inducing activity (β-stimulation of the skeletal muscles) compared to bronchospasmolytic activity in cats (Bowman and Nott); assay type: in vivo
Method: For a few of the compounds of the invention, the tremor-inducing activity (β-stimulation of the skeletal muscles) was determined in cats (in accordance with the technique of Bowman, W. C. and Nott, M. W.: Actions of some sympathomimetic bronchodilator and beta-adrenoceptor blocking drugs on contractions of the cat soleus muscle, Brit. J. Pharmac., 1970, 38, 37-49) and compared to the bronchospasmolytic activity in the same species.

[8] = iv, read-out: β2 -stimulation lungs guinea pig ED 50 i.v.
[9] = i.d. = intraduodenally, read-out: β2 -stimulation lungs guinea pig ED 50 i.d.

SMILES | ED50 [1, 8] [mg/kg] | LD50 (in vivo; iv) [mg/kg] | LD50 (in vivo; po) [mg/kg] | ED50 [1, 9] [mg/kg] | Ratio "ED 100"/ED 50 [2] | ED (increase of 100 beats/min) [3] [mg/kg] | broncholytic activity relative to salbutamol (conscious guinea pigs [4]) [times] | heart rate stimulating effect compared with salbutamol (conscious guinea pigs [5]) | acute intravenous and oral toxicity test: tolerability (dogs) | two week tolerance test in dogs: tolerability (dogs) | three month toxicity test: toxic reactions [6] | ratio between bronchospasmolytic dose and tremor-inducing dose, compared with salbutamol [7]
Cc1ccc(CNc2cc(C(O)CNC(C)(C)C)ccc2O)cc1.Cl (stereo not drawn) [3-(4-Methylbenzylamino)-4-hydroxy-α-(tert.butylaminomethyl)benzylalcohol hydrochloride] | 0.07 | 20 | 700 |  |  |  |  |  |  |  |  | 
CC(C)(C)NCC(O)c1ccc(O)c(NCc2ccc(O)cc2)c1.Cl (stereo not drawn) [3-(4-Hydroxybenzylamino)-4-hydroxy-α-(tert.butylaminomethyl)benzylalcohol hydrochloride] | 0.01 | 20 | > 2000 | 10 | 7 | 0.07 |  |  |  |  |  | 
CC(C)(C)NCC(O)c1ccc(O)c(NC(=O)c2ccc([N+](=O)[O-])cc2)c1.Cl (stereo not drawn) [3-(4-nitrobenzamido)-4-hydroxy-α-(tert.butylaminomethyl)benzylalcohol hydrochloride] | 0.1 | 40 | > 2000 | 10 | > 10 | > 1 |  |  |  |  |  | 
COc1ccc(CNc2cc(C(O)CNC(C)(C)C)ccc2O)cc1.Cl (stereo not drawn) [3-(4-Methoxybenzylamino)-4-hydroxy-α-(tert.butylaminomethyl)-benzylalcohol hydrochloride] | 0.003 | 20 | 300 | 1 | 33 | 0.1 | 10 | the heart rate stimulating effect was the same | good tolerability | good tolerability | no toxic reactions | a better ratio than salbutamol
COc1ccc(C(=O)Nc2cc(C(O)CNC(C)(C)C)ccc2O)cc1.Cl (stereo not drawn) [3-(4-methoxybenzamido)-4-hydroxy-α-(tert.butylaminomethyl)benzylalcohol hydrochloride] | 0.1 | 80 | > 2000 | 10 | > 10 | > 1 |  |  |  |  |  | the same ratio between bronchospasmolytic dose and tremor-inducing dose as salbutamol
COCCOc1ccc(CNc2cc(C(O)CNC(C)(C)C)ccc2O)cc1.Cl (stereo not drawn) [3-[4-(2-Methoxyethoxy)benzylamino]-4-hydroxy-α-(tert.butylaminomethyl)-benzylalcohol hydrochloride] | 0.01 | 20 | > 1000 | 1 | 10 | 0.1 |  |  |  |  |  | 
CC(C)(C)NCC(O)c1ccc(O)c(NCc2cccc(O)c2)c1 (stereo not drawn) [3-(3-hydroxybenzylamino)-4-hydroxy-α-(tert.butylaminomethyl) benzylalcohol] | 0.01 | 20 | ≥ 2000 | 10 | 2.5 | 0.025 |  |  |  |  |  | 
CC(C)(C)NCC(O)c1ccc(O)c(NC(=O)c2ccc(Cl)cc2)c1.Cl (stereo not drawn) [3-(4-Chlorobenzamido)-4-hydroxy-α-(tert.butylaminomethyl)benzylalcohol hydrochloride] | 0.5 | 60 | > 2000 |  |  |  |  |  |  |  |  | 
CC(C)NCC(O)c1ccc(O)c(NS(C)(=O)=O)c1 (centres unmarked) [Soterenol, reference compound] | 0.02 | 60 | 750 |  | 2 | 0.04 |  |  |  |  |  | 
COc1c(C)cc(CNc2cc(C(O)CNC(C)(C)C)ccc2O)cc1C.Cl (stereo not drawn) [3-(3,5-Dimethyl-4-methoxybenzylamino)-4-hydroxy-α-(tert.butylaminomethyl)benzylalcohol hydrochloride] | 0.03 | 20 | 1500 | 3 | 10 | 0.3 |  |  |  |  |  | 
CC(C)NCC(O)c1ccc(O)c(O)c1 (centres unmarked) [Isoprenaline, reference compound] | 0.005 |  |  |  |  | 0.0003 |  |  |  |  |  | 
CC(C)(C)NCC(O)c1ccc(O)c(NCc2ccc([N+](=O)[O-])cc2)c1.Cl (stereo not drawn) [3-(4-Nitrobenzylamino)-4-hydroxy-α-(tert.butylaminomethyl)-benzylalcohol hydrochloride] | 0.01 | 60 | 400 | 0.5 | 10 | 0.1 |  |  |  |  |  | 
COc1ccc(CNc2cc(C(O)CNC(C)(C)C)ccc2O)cc1OC.Cl (stereo not drawn) [3-(3,4-Dimethoxybenzylamino)-4-hydroxy-α-(tert.butylaminomethyl)benzylalcohol hydrochloride] | 0.01 | 20 | > 2000 | 10 | 9 | 0.09 |  |  |  |  |  | 
COc1cc(CNc2cc(C(O)CNC(C)(C)C)ccc2O)ccc1O.Cl (stereo not drawn) [3-(3-Methoxy-4-hydroxybenzylamino)-4-hydroxy-α-(tert.butylaminomethyl)-benzylalcohol hydrochloride] | 0.02 | 10 to 30 | > 2000 |  | 2.5 | 0.05 |  |  |  |  |  | 
CCOc1ccc(CNc2cc(C(O)CNC(C)(C)C)ccc2O)cc1.Cl (stereo not drawn) [3-(4-Ethoxybenzylamino)-4-hydroxy-α-(tert.butylaminomethyl)benzylalcohol hydrochloride] | 0.01 | 20 | 400 | 5 | 10 | 0.1 |  |  |  |  |  | 
CC(C)(C)NCC(O)c1ccc(O)c(NC(=O)c2cc(O)cc(O)c2)c1.Cl (stereo not drawn) [3-(3,5-Dihydroxybenzamido)-4-hydroxy-α-(tert.butylaminomethyl)-benzylalcohol hydrochloride] | 0.3 | 20 | > 2000 | 20 |  |  |  |  |  |  |  | 
CC(C)(C)NCC(O)c1ccc(O)c(CO)c1 (centres unmarked) [Saloutamol, salbutamol, reference compound] | 0.01 |  |  | 5 |  | 0.1 |  |  |  |  |  | 
CC(C)Oc1ccc(CNc2cc(C(O)CNC(C)(C)C)ccc2O)cc1.Cl (stereo not drawn) [3-(4-Isopropoxybenzylamino)-4-hydroxy-α-(tert.butylaminomethyl)-benzylalcohol hydrochloride] | 0.03 | 20 | 400 |  | 3.3 | 0.1 |  |  |  |  |  | 
CN(C)c1ccc(CNc2cc(C(O)CNC(C)(C)C)ccc2O)cc1.Cl (stereo not drawn) [3-(4-Dimethylaminobenzylamino)-4-hydroxy-α-(tert.butylaminomethyl)benzylalcohol hydrochloride] | 0.02 | 20 | 700 |  | ≥ 5 | ≥ 0.1 |  |  |  |  |  | 
CC(C)(C)NCC(O)c1ccc(O)c(NC(=O)c2cccc([N+](=O)[O-])c2)c1.Cl (stereo not drawn) [3-(3-Nitrobenzamido)-4-hydroxy-α-(tert.butylaminomethyl)benzylalcohol hydrochloride] | 0.3 | 60 | > 2000 |  |  |  |  |  |  |  |  | 
CC(C)(C)NCC(O)c1ccc(O)c(NC(=O)c2ccc(Cl)c(Cl)c2)c1.Cl (stereo not drawn) [3-(3,4-Dichlorobenzamido)-4-hydroxy-α-(tert.butylaminomethyl)benzylalcohol hydrochloride] | 0.1 | 60 | > 2000 |  |  |  |  |  |  |  |  | 
CC(C)NCC(O)c1cc(O)cc(O)c1 (centres unmarked) [Orciprenaline, reference compound] | 0.1 |  |  |  |  | 0.01 |  |  |  |  |  | 
CC(C)(C)NCC(O)c1cc(O)cc(O)c1 (centres unmarked) [Terbutaline, reference compound] | 0.03 | 40 | > 2000 | 10 | 10 | 0.3 |  |  |  |  |  | 
CC(C)(C)NCC(O)c1ccc(O)c(NCc2ccc(OCC(N)=O)cc2)c1 (stereo not drawn) [3-[4-(carbamoylmethoxy)benzylamino]-4-hydroxy-α-(tert.butylaminomethyl)benzylalcohol] | 0.01 | 20 | > 1000 | 10 | 10 | 0.1 |  |  |  |  |  | 
